Consider three compounds from patent US10479786B2, “Protein kinase inhibitors” (Princeton Drug Discovery Inc, priority 2016, dated 2019).

Each structure is given as a SMILES string.

Data set [1] relates to battery of selected protein kinases. Briefly: In vitro screen of a battery of selected protein kinases (summary statement). It counts as biochemical. The note with it: BTK, BMX, ABL, ABL(E255K), SRC, ACK, ARG, BLK, DDR2, EPHA, FGR, FMS, FRK, FYN, HCK, LCK, LYN, PDGFRα, PDGFRβ, YES, PIK3CA/PIK3R1, among others.
The next data set deals with T1, DDR2 (Homo sapiens, UniProt Q16832).
T1 construct: purchased Carna Biosciences, Inc
T1 sequence (Q16832 22-855): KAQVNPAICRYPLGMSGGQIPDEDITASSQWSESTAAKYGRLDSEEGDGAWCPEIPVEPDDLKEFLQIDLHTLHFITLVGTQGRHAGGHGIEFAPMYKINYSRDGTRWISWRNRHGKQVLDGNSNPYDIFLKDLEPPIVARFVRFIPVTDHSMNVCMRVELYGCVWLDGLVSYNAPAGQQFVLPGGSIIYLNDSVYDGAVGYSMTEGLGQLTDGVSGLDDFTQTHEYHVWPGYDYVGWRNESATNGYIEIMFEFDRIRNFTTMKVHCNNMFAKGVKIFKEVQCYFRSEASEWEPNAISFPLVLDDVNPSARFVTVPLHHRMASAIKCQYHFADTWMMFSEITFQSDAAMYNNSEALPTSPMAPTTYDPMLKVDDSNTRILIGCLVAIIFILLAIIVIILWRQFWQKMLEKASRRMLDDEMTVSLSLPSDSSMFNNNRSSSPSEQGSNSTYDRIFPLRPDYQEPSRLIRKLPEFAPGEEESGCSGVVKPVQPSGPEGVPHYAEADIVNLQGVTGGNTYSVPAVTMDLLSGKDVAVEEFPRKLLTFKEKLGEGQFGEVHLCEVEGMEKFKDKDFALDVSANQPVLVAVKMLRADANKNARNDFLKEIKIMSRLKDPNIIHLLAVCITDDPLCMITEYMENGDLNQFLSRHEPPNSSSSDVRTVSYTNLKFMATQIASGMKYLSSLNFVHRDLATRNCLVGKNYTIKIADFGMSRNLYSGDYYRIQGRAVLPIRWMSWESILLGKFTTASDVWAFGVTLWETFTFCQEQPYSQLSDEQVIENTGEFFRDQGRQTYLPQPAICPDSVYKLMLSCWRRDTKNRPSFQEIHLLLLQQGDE
Briefly: Off-chip Mobility Shift Assay, kinase inhibition. It counts as biochemical.

The target in a further data set is T2, LYNa (Homo sapiens, UniProt P07948).
T2 construct: purchased Carna Biosciences, Inc
Briefly: Off-chip Mobility Shift Assay, kinase inhibition. It counts as biochemical.

The target of another data set is T3, FGR (Homo sapiens, UniProt P09769).
T3 construct: purchased Carna Biosciences, Inc
Nature of the data set: Off-chip Mobility Shift Assay, kinase inhibition. The class given is biochemical.

The next data set deals with T4, PDGFRβ (Homo sapiens, UniProt P09619).
T4 construct: purchased Carna Biosciences, Inc
Nature of the data set: Off-chip Mobility Shift Assay, kinase inhibition. It counts as biochemical.

The nature of data set [2]: Pharmacokinetics in Sprague-Dawley rats, 2-in-1 dosing. It counts as in vivo. To be noted: rat; for V: intravenous 1 mg/kg. The procedure: Sprague-Dawley rats (approximate weight 275-300 g, N=3) were dosed intravenously at 5 mL/kg and orally at 10 mL/kg with the above dosing solutions. Blood samples were collected into tubes containing EDTA as the anticoagulant at 0, 0.25 (intravenous only), 0.5, 1, 2, 4, 8, 10, and 24 h post-dosing, and plasma samples were prepared by centrifugation. The plasma samples were mixed with 3× volumes of acetonitrile containing 100 nM reserpine as the internal standard, and centrifuged at 4000 RPM for 15 min. The supernatants were injected for LC/MS analysis which were carried out on a AB Sciex 4000 Q Trap LC/MS/MS system coupled with Shimadzu Prominence UFLCXR 20 series (including a CBM-20A controller, two LC-20ADXR solvent delivery units, SIL-20AC HT autosampler, CTO-20A column oven, and a SPD-20A UV detector). The samples were separated on a Phenomenex Columbus column (C18, 4 μm, 50×2 mm) eluted with two solvent systems: 2 mM ammonium acetate in water containing 0.1% formic acid (A) and methanol (B) at a linear gradient starting with 25% B. Electrospray ionization in positive mode was used to acquire LC/MS/MS data.

The next data set deals with T5, ARG (Homo sapiens, UniProt P42684).
T5 construct: purchased Carna Biosciences, Inc
Briefly: Off-chip Mobility Shift Assay, kinase inhibition. It counts as biochemical.

A further data set concerns the target T6, PDGFRα (Homo sapiens, UniProt P16234).
T6 construct: purchased Carna Biosciences, Inc
Briefly: Off-chip Mobility Shift Assay, kinase inhibition. The class given is biochemical.

A further data set addresses T7, HCK (Homo sapiens, UniProt P08631).
T7 construct: purchased Carna Biosciences, Inc
Briefly: Off-chip Mobility Shift Assay, kinase inhibition. The class given is biochemical.

The test system of another data set is SU-DHL-4. Nature of the data set: Cell inhibition assay (PrestoBlue, 48 h). The class given is cell-based. To be noted: Homo sapiens, SU-DHL-4, 48 h, SU-DHL-4 diffuse large B-cell lymphoma cells, read-out: IC50, inhibition of growth.
Another data set deals with Mino. Nature of the data set: Cell inhibition assay (PrestoBlue, 48 h). The note with it: Homo sapiens, Mino cells, read-out: IC50, inhibition of growth. It counts as cell-based.
Where [3] appears, read: Table 2, co-dosed with compound IV.
Setting [4] is: Table 3, co-dosed with compound X.

T6 sequence (P16234 24-1089): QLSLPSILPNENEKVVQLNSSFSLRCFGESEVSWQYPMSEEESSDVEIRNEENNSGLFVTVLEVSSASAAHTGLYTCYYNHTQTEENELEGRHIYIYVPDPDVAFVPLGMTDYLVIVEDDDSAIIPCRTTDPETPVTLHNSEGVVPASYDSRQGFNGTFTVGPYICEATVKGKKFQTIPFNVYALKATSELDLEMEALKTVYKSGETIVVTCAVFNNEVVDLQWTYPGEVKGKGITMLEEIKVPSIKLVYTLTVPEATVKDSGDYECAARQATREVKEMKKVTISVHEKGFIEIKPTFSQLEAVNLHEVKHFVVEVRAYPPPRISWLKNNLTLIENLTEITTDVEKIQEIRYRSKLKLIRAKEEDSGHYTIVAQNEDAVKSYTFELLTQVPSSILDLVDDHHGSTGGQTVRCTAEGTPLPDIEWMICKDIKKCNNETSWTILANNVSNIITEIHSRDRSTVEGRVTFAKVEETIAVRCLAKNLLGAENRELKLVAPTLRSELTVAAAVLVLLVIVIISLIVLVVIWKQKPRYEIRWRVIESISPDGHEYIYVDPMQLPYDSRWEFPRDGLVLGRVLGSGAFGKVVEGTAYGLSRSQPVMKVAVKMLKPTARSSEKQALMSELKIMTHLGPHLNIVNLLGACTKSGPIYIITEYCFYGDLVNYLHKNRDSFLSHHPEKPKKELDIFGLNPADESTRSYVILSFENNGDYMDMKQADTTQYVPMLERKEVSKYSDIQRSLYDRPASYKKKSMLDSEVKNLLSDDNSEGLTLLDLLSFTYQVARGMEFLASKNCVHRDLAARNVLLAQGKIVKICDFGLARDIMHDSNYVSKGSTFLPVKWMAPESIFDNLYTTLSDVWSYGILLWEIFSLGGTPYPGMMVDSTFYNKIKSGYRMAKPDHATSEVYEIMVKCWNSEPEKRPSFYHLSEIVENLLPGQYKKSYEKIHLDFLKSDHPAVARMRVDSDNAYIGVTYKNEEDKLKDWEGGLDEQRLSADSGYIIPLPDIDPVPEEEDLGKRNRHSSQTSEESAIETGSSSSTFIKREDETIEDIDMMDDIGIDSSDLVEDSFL
T7 sequence (P08631 whole entry): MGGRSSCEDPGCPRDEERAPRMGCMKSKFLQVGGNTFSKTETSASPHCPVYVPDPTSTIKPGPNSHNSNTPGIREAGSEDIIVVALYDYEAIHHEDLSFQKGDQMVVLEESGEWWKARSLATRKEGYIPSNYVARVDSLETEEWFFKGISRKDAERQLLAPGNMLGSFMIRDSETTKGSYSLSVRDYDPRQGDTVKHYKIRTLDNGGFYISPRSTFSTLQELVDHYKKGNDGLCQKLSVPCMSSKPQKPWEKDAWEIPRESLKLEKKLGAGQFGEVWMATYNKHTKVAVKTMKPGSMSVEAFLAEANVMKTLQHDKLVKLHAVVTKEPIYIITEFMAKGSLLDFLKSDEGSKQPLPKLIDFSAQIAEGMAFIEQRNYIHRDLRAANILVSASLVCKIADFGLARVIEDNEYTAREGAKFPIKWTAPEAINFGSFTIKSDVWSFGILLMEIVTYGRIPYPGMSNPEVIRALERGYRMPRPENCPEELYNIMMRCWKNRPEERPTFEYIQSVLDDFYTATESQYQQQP
T2 sequence (P07948 whole entry): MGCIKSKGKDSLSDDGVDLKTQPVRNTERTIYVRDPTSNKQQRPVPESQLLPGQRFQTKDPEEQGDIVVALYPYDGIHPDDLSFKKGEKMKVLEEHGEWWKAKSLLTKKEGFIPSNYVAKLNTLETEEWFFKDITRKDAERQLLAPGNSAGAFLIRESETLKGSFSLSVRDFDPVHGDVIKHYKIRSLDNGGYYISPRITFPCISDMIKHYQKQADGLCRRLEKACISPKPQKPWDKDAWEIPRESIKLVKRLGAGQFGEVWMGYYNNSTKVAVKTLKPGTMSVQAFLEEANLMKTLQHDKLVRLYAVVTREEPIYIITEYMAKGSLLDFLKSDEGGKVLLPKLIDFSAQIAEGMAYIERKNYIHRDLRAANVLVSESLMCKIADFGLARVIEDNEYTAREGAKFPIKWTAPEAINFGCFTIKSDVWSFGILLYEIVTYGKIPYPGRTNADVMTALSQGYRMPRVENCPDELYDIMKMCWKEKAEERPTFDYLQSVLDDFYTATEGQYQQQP
T3 sequence (P09769 whole entry): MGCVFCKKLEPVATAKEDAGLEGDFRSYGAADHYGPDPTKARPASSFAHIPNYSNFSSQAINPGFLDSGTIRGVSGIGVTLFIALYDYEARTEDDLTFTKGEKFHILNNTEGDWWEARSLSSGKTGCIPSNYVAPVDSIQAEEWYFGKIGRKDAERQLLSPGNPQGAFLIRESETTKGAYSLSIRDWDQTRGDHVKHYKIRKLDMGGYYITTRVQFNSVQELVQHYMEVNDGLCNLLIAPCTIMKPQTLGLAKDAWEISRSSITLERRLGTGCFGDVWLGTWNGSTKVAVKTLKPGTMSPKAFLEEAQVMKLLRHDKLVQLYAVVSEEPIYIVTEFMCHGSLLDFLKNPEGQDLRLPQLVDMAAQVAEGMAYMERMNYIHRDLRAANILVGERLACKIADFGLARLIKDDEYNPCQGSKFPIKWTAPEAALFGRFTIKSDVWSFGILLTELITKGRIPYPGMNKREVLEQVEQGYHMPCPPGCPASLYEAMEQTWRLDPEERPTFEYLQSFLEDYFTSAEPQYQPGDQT
T4 sequence (P09619 33-1106): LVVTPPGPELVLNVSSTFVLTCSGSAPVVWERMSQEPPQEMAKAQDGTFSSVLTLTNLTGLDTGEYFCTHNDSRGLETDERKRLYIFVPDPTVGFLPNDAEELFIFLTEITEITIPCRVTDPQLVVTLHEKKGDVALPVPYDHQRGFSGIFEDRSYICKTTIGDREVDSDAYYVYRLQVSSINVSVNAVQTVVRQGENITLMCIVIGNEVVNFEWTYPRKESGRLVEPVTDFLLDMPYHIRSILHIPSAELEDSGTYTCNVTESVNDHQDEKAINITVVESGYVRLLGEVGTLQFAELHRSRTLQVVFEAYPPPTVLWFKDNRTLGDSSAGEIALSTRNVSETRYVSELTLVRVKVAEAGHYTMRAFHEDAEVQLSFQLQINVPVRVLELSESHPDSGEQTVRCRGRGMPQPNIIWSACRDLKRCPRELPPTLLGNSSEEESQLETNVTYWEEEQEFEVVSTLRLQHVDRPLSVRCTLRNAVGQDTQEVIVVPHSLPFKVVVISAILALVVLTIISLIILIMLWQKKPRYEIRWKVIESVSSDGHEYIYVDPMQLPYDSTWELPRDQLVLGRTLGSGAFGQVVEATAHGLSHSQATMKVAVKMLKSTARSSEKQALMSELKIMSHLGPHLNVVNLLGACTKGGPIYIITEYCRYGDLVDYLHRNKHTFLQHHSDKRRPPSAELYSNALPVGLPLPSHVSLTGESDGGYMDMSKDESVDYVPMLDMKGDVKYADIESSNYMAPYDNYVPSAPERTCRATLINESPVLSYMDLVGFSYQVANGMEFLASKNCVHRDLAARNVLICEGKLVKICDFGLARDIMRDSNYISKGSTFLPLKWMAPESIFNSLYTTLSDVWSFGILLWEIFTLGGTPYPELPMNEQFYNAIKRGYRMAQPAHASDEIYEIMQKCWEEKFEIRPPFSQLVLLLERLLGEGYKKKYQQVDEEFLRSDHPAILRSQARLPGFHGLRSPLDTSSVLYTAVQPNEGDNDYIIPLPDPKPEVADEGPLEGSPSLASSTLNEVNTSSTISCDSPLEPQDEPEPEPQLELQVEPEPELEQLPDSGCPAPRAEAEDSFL
T5 sequence (P42684 whole entry): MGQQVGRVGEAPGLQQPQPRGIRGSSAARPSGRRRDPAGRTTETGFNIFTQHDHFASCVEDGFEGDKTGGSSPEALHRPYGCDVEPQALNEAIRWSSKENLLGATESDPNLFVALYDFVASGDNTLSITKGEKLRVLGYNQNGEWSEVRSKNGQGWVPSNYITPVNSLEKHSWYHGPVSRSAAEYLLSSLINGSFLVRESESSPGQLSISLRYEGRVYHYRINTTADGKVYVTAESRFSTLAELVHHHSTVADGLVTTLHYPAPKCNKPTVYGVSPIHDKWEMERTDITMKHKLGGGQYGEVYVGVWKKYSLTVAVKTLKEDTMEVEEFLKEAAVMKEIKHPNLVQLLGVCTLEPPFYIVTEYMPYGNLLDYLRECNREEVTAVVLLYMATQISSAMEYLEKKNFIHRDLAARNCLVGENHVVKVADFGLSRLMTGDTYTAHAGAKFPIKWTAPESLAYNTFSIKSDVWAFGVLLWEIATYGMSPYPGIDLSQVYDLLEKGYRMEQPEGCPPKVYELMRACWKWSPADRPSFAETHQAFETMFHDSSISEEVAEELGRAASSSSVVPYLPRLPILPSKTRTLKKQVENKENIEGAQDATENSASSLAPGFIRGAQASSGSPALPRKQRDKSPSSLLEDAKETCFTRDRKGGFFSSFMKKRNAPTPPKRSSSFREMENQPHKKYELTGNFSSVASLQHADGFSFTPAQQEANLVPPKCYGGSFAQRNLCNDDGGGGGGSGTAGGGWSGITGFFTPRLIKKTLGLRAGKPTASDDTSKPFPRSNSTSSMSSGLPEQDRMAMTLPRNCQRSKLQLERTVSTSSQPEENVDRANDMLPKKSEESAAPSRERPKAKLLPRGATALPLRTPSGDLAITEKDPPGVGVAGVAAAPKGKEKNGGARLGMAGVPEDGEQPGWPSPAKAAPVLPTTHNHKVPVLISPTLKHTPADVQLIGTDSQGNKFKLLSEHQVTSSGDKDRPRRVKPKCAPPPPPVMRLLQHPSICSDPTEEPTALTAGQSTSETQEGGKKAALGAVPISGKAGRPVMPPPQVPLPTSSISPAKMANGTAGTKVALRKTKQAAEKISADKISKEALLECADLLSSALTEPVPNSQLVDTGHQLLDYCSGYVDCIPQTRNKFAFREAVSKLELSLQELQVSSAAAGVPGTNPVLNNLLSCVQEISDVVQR

For the compound `[2H]c1cc(C)c(NC(=O)c2cnc(Nc3cc(N4CCN(CCO)CC4)nc(C)n3)s2)c(Cl)c1` [Compound III], in data set [1], the “activity to inhibit kinases” value is given as “potent activity”. Further, the inhibition at 0.01 µM on DDR2, on LYNa, at FGR, on PDGFRβ, at ARG and at PDGFRα was more than 50% in each case. For the same compound, on HCK, the inhibition (commonly how much of the control response was suppressed) at 0.01 µM is more than 50%. Also, the V in data set [2] (setting [3]) and in data set [2] (setting [4]) was 3 ± 0 L/kg each time.
Consider `Cc1nc(Nc2ncc(C(=O)Nc3c(C)cccc3Cl)s2)cc(N2CCCC2)n1` [Compound XIV, N-(2-chloro-6-methylphenyl)-2-[[2-methyl-6-(pyrrolidin-1-yl)pyrimidin-4-yl]amino]thiazole-5-carboxamide], for which the IC50 (in general, the midpoint of a concentration-inhibition curve) is less than 20 nM in the data set on SU-DHL-4 and less than 50 nM in the data set with Mino.
On to `Cc1nc(Nc2ncc(C(=O)Nc3c(C)cccc3Cl)s2)cc(N2CCN(CCO)CC2)n1` [Dasatinib, reference compound], for which, in data set [2] (PO 5 mg/kg versus intravenous 1 mg/kg, AUCinf dose normalized, Table 3), the “F, percent oral bioavailability” value is 3.9±1%. Moreover, the V came to 3 ± 0 L/kg in data set [2] (setting [3]) and 2 ± 0 L/kg in [2] (setting [4]).
